Assay results: ChEMBL document CHEMBL1125541, “Synthesis and antiviral evaluation of N-carboxamidine-substituted analogues of 1-beta-D-ribofuranosyl-1,2,4-triazole-3-carboxamidine hydrochloride” (J Med Chem, 1992); call rule not given here
≈ marks a conversion by molar mass, not a printed value. Where “and” joins values, the source holds several entries; their conditions need not be identical. Identical values can stand only once.

Legend:
[1] = Compound was tested in vitro for antiviral activity against sandfly fever-Sicilian (SF) virus (Concentration required for the 50%inhibition of virus-induced cell death); inactive; type: functional
[2] = Compound was tested in vitro for antiviral activity against sandfly fever-Sicilian (SF) virus (Concentration which was cytotoxic to 50% of uninfected cells); conditions: read-out: TC50 (the source's name)
[3] = Compound was tested in vitro for antiviral activity against Punta Toro (PT) virus (Concentration which was cytotoxic to 50% of uninfected cells); conditions: read-out: TC50 (the source's name)
[4] = Compound was tested in vitro for antiviral activity against Punta Toro (PT) virus (Concentration required for the 50%inhibition of virus-induced cell death); inactive; type: functional
Vaccinia virus = test: Compound was tested in vitro for antiviral activity against vaccinia virus (Concentration required for the 50%inhibition of virus-induced cell death); type: functional, organism-based; conditions: Orthopoxvirus vaccinia
[5] = Compound was tested in vitro for antiviral activity against sandfly fever-Sicilian (SF) virus (Concentration required for the 50%inhibition of virus-induced cell death); type: functional
[6] = Compound was tested in vitro for antiviral activity against influenza A virus (Concentration which was cytotoxic to 50% of uninfected cells); type: organism-based; conditions: read-out: TC50 (the source's name)
[7] = Compound was tested in vitro for antiviral activity against vaccinia virus (Concentration which was cytotoxic to 50% of uninfected cells); type: organism-based; conditions: orthopoxvirus vaccinia, read-out: TC50 (the source's name)
[8] = Compound was tested in vitro for antiviral activity against parainfluenza type 3 virus (Concentration which was cytotoxic to 50% of uninfected cells); conditions: human respirovirus 3, uninfected cells; read-out: TC50 (the source's name)
Influenza A virus [9] = test: Compound was tested in vitro for antiviral activity against influenza A virus (Concentration required for the 50%inhibition of virus-induced cell death); type: functional, organism-based
Human respirovirus 3 = test: Compound was tested in vitro for antiviral activity against parainfluenza type 3 virus (Concentration required for the 50%inhibition of virus-induced cell death); type: functional, organism-based
[10] = test system: Respiratory syncytial virus; test: Compound was tested in vitro for antiviral activity against respiratory syncitial virus (Concentration required for the 50%inhibition of virus-induced cell death); type: functional, organism-based; conditions: human respiratory syncytial virus
[11] = Compound was tested in vitro for antiviral activity against respiratory syncitial virus (Concentration which was cytotoxic to 50% of uninfected cells); conditions: read-out: TC50 (the source's name)
[12] = Compound was tested in vitro for antiviral activity against Punta Toro (PT) virus (Concentration required for the 50%inhibition of virus-induced cell death); type: functional
[13] = Compound was tested in vitro for antiviral activity against dengue-4-virus (Concentration which was cytotoxic to 50% of uninfected cells); conditions: dengue virus type 4, uninfected cells; read-out: TC50 (the source's name)
dengue virus type 4 [14] = test: Compound was tested in vitro for antiviral activity against dengue-4-virus (Concentration required for the 50%inhibition of virus-induced cell death); type: functional, organism-based
[15] = Therapeutic index is expressed as ratio of TC50/IC50; conditions: for selectivity ratio: read-out: TI50
[16] = Compound was tested in vitro for antiviral activity against Punta Toro (PT) virus (Concentration required for the 50%inhibition of virus-induced cell death); IA - Viral cytopathic effect reduced 25%-49% only.; type: functional
dengue virus type 4 [17] = test: Compound was tested in vitro for antiviral activity against dengue-4- virus (Concentration required for the 50%inhibition of virus-induced cell death); type: functional, organism-based
[18] = Compound was tested in vitro for antiviral activity against dengue-4- virus (Concentration which was cytotoxic to 50% of uninfected cells); conditions: read-out: TC50 (the source's name)
Influenza A virus [19] = test: Compound was tested in vitro for antiviral activity against influenza B virus (Concentration required for the 50%inhibition of virus-induced cell death); type: functional, organism-based

SMILES: CNC(=O)c1ncn([C@@H]2O[C@H](CO)[C@@H](O)[C@H]2O)n1
- IC50 [1]: Not Active
- CC50 [2]: > 320 µg/mL
- CC50 [3]: > 320 µg/mL
- IC50 [4]: Not Active

SMILES: Cl.OC[C@H]1O[C@@H](n2cnc(C3=NCCCN3)n2)[C@H](O)[C@@H]1O
- IC50 [1]: Not Active
- CC50 [2]: > 3200 µg/mL
- CC50 [3]: > 3200 µg/mL
- IC50 [4]: Not Active

SMILES: C/N=C(/N)c1ncn([C@@H]2O[C@H](CO)[C@@H](O)[C@H]2O)n1.Cl
- IC50 (Vaccinia virus): 198 µg/mL
- IC50 [5]: 104 µg/mL
- CC50 [6]: > 1000 µg/mL
- CC50 [7]: > 320 µg/mL
- CC50 [2]: > 1000 µg/mL
- CC50 [3]: > 1000 µg/mL
- CC50 [8]: > 1000 µg/mL
- IC50 (Influenza A virus [9]): 63 µg/mL
- IC50 (Human respirovirus 3): 125 µg/mL
- IC50 [10]: 24 µg/mL
- CC50 ([11]; respiratory syncytial virus): > 1000 µg/mL
- IC50 [12]: 250 µg/mL

SMILES: C/N=C(\NC)c1ncn([C@@H]2O[C@H](CO)[C@@H](O)[C@H]2O)n1.Cl
- IC50 (Vaccinia virus): 184 µg/mL
- IC50 [5]: 94 µg/mL
- CC50 [7]: > 1000 µg/mL
- CC50 [2]: > 1000 µg/mL
- CC50 [3]: 2900 µg/mL
- CC50 [13]: > 250 µg/mL
- IC50 (dengue virus type 4 [14]): 162 µg/mL
- IC50 [12]: 181 µg/mL

SMILES: Cl.OC[C@H]1O[C@@H](n2cnc(C3=NCC(O)CN3)n2)[C@H](O)[C@@H]1O (some centres not stated)
- IC50 [1]: Not Active
- CC50 [2]: > 320 µg/mL
- CC50 [3]: > 320 µg/mL
- IC50 [4]: Not Active

SMILES: COC(=N)c1ncn([C@@H]2O[C@H](CO)[C@@H](O)[C@H]2O)n1
- IC50 [5]: 98 µg/mL (≈ 380 µM)
- CC50 [2]: 840 µg/mL (≈ 3250 µM)
- TI50 [15]: 8.6 and 3.7 and > 3.3
- CC50 [3]: 744 µg/mL (≈ 2880 µM)
- CC50 [13]: > 250 µg/mL
- IC50 (dengue virus type 4 [14]): 76 µg/mL (≈ 294 µM)
- IC50 [12]: 201 µg/mL (≈ 778 µM)

SMILES: CCCC/N=C(/N)c1ncn(C2O[C@H](CO)[C@@H](O)[C@H]2O)n1 (some centres not stated)
- IC50 [5]: 73 µg/mL (≈ 244 µM)
- CC50 [2]: > 1000 µg/mL
- TI50 [15]: 16
- selectivity ratio [15]: 13.7
- CC50 [3]: 660 µg/mL (≈ 2200 µM)
- IC50 [12]: 41 µg/mL (≈ 137 µM)

SMILES: NC(=O)CCC(/N=C(/N)c1ncn(C2O[C@H](CO)[C@@H](O)[C@H]2O)n1)C(=O)O (some centres not stated)
- IC50 [5]: 547 µg/mL (≈ 1470 µM)
- CC50 [2]: > 3200 µg/mL
- CC50 [3]: > 3200 µg/mL
- IC50 [12]: 2690 µg/mL (≈ 7220 µM)

SMILES: N/C(=N/CC(=O)O)c1ncn(C2O[C@H](CO)[C@@H](O)[C@H]2O)n1 (some centres not stated)
- IC50 [5]: 566 µg/mL (≈ 1880 µM)
- CC50 [2]: > 3200 µg/mL
- selectivity ratio [15]: > 5.66
- CC50 [3]: > 1000 µg/mL
- IC50 [16]: Not Active

SMILES: N#C/N=C(/N)c1ncn(C2O[C@H](CO)[C@@H](O)[C@H]2O)n1 (some centres not stated)
- IC50 [1]: Not Active
- CC50 [2]: > 1000 µg/mL
- selectivity ratio [15]: > 1
- CC50 [3]: > 1000 µg/mL
- IC50 [4]: Not Active
- IC50 (dengue virus type 4 [17]): 250 µg/mL (≈ 932 µM)
- CC50 [18]: > 250 µg/mL

SMILES: CCCCCCCC/N=C(/N)c1ncn(C2O[C@H](CO)[C@@H](O)[C@H]2O)n1 (some centres not stated)
- IC50 [5]: 339 µg/mL (≈ 954 µM)
- CC50 [2]: > 1000 µg/mL
- selectivity ratio [15]: > 3
- CC50 [3]: > 1000 µg/mL
- IC50 [4]: Not Active

SMILES: NC(=O)CC(/N=C(/N)c1ncn(C2O[C@H](CO)[C@@H](O)[C@H]2O)n1)C(=O)O (some centres not stated)
- IC50 [5]: 484 µg/mL (≈ 1350 µM)
- CC50 [2]: > 3200 µg/mL
- CC50 [3]: > 3200 µg/mL
- IC50 [12]: 1600 µg/mL (≈ 4470 µM)

SMILES: Cl.N=C(N)c1ncn([C@@H]2O[C@H](CO)[C@@H](O)[C@H]2O)n1 [TARIBAVIRIN HYDROCHLORIDE]
- IC50 (Vaccinia virus): 59 µg/mL
- IC50 [5]: 36 µg/mL
- CC50 [6]: > 1000 µg/mL
- CC50 [7]: > 320 µg/mL
- CC50 [2]: 800 µg/mL
- CC50 [3]: 752 µg/mL
- IC50 (Influenza A virus [19]): 48 µg/mL
- IC50 (dengue virus type 4 [17]): 100 µg/mL
- CC50 [13]: 250 µg/mL
- IC50 [10]: 16 µg/mL
- CC50 ([11]; human respiratory syncytial virus): > 1000 µg/mL
- IC50 [12]: 83 µg/mL
